Reference: patent EP1582213A1, “Use of adenosine for treating surgery related ischemia” (Ludwig-Maximilians-Universität München, priority 2004, dated 2005)

What was measured:
Format in all cases: in vivo, human
[1] = Determination of bilirubin in blood samples of patients after partial liver resection
Description: (§1) Adenosine group: The members of this group were experiencing liver trauma during resection and additional organ ischemia during resection (Pringle-manoeuvre, duration 30 to 45 minutes). Liver protection was realised by intermitting central venous administration of adenosine (infusion duration 10 minutes, 120 to 150 µg/kg body weight/min) 20 minutes prior to resection/ischemia, and a new continuous infusion immediately after reperfusion (infusion duration 70 to 90 minutes, 120 to 150 µg/kg body weight/min).
(§2) The following tests were carried out in order to assess the post-operational organ functions: • 1. Quick test • 2. Determination of the bilirubin • 3. Lactate for monitoring the energetic situation
Any of the results obtained by applying these tests on blood samples taken from the members of the various study groups, are depicted in table 1: Table 1: […]

[2] = tested on: beta 2 adhesion molecules on circulating granulocytes; experiment: Granulocyte function: expression of beta 2-integrins on circulating granulocytes, FACScan with FITC marked anti-CD18 antibody (Fig. 3); conditions: observed immediately after ischemia and reperfusion; adenosine administered prior and after ischemia; vs. control groups 1 and 2
Description: as §1
(§3) To assess protection conferred by adenosine on the anti-inflammation branch, both interleukin 6 and granulocyte functions were determined, whereby the results are presented in Figs. 2 and 3.
The further parameter for anti-inflammation, i. e. granulocyte function, was measured as the inhibition of potential cytotoxic functions of white blood cells due to liver ischemia which was measured using the expression of beta 2-intergrins through the monoclonal anti-CD18 antibody. More particularly, the expression was determined prior to ischemia and 3, 30 and 120 minutes after reperfusion. The cells were analysed using a FACScan and a FITC marked anti-CD18 antibody. […] As indicated in Fig. 3 $ p < 0.05 vs. control group 1, # p < 0.05 vs. control group 2.

[3] = Quick test (prothrombin time) on blood samples of patients after partial liver resection
Description: as §1, §2
(§4) Any of the results obtained by applying these tests on blood samples taken from the members of the various study groups, are depicted in table 1: Table 1:
The quick test serves as a parameter for the assessment of the protein synthesis performance of the liver after the procedure.

[4] = Lactate in serum for monitoring the energetic situation after partial liver resection
Description: as §1, §2, §4
Also using lactate as a parameter for cytoprotective effects confirms the significant effectiveness of adenosine administration. The lactate concentration in serum is regarded as a marker for the extent of anaerobic metabolism due to lack of oxygen caused by a cellular lack of energy. The lactate concentrations in the serum are highest post-procedure in group 2, where surgical liver trauma and ischemia/reperfusion was combined.

[5] = tested on: interleukin 6; experiment: Interleukin 6 titre in blood of patients before and after liver resection (Fig. 2); conditions: post-procedure increase, first and second day after resection; adenosine group vs. control groups; three to five patients per group
Description: as §1, §3
As depicted in Fig. 2, the level of interleukin 6 increased in any of the four groups, whereby each group consisted of three to five patients. Such increase is typically observed as a post-procedure reaction. The serum titres of the pro-inflammatory cytokine interleukin 6 can increase by three magnitudes compared to the pre-procedure titre and were highest in control group 2, where both surgical liver trauma and ischemia/reperfusion were combined.

[6] = first postoperative day, adenosine 120 to 150 µg/kg body weight/min prior to resection/ischemia and after reperfusion, mean
[7] = second postoperative day, same regimen, mean

SMILES: Nc1ncnc2c1ncn2[C@@H]1O[C@H](CO)[C@@H](O)[C@H]1O [Adenosine, adenosine]
- bilirubin concentration ([1]; adenosine group, post-procedure vs. pre-procedure values): remained unchanged compared to pre- procedure values
- bili-1 [1, 6]: #0,6 mg/dI
- bili pre ([1]; preoperative baseline, bilirubin, mean of adenosine group, norm <1,0): 0,4 mg/dI
- bili-2 [1, 7]: #0,5 mg/dI
- activation of granulocytes circulating in the blood [2]: effectively avoided
- value of the quick test on the first and second day after surgery (liver synthesis performance) ([3]; adenosine group compared with the control groups): higher in the adenosine group
- PT(Quick)1 ([3]; first postoperative day, partial liver resection with Pringle-manoeuvre 30 to 45 minutes, adenosine central venous 120 to 150 µg/kg body weight/min, 10 minutes given 20 minutes prior to resection/ischemia and 70 to 90 minutes after reperfusion, mean): #*66%
- PT(Quick)pre ([3]; preoperative baseline, Prothrombin Time expressed as Quick-values, mean of adenosine group, norm 70-100 %): 100%
- PT(Quick)2 [3, 7]: 72%
- Lactate-1 [4, 6]: 1,8 mmo I/I
- initial increase in the lactate on the first post-procedure day ([4]; intravenous systemic administration of adenosine prior and after resection and ischemia, compared with control group 2): less pronounced
- Lactat pre ([4]; preoperative baseline, lactate-concentration, mean of adenosine group, norm <2): <1,0 mmo I/I
- Lactate-2 [4, 7]: 1,2 mmo I/I
- IL 6 titre [5]: significantly less pronounced
